Laboratory results from PMC4335978, “Regulation of nitrite resistance of the cytochrome cbb3 oxidase by cytochrome c ScyA in Shewanella oneidensis” (MicrobiologyOpen, 2014).

How the values were obtained:
[1] = target: T1, bd oxidase (cytochrome bd) (Shewanella oneidensis, UniProt Q8EC58); test: oxygen consumption (O2 electrode), membranes of Δcco strain; type: biochemical; details: ~70 μmol/L O2; ubiquinol-1 as electron donor; no added ScyA
T1 construct: gene cydA; native cydABX complex in membrane preparations of S. oneidensis Δcco strain (cbb3 oxidase absent), not purified, no tag; with Cytochrome bd ubiquinol oxidase subunit II CydB; Cytochrome bd oxidase small subunit CydX
T1 sequence (Q8EC58 1-518): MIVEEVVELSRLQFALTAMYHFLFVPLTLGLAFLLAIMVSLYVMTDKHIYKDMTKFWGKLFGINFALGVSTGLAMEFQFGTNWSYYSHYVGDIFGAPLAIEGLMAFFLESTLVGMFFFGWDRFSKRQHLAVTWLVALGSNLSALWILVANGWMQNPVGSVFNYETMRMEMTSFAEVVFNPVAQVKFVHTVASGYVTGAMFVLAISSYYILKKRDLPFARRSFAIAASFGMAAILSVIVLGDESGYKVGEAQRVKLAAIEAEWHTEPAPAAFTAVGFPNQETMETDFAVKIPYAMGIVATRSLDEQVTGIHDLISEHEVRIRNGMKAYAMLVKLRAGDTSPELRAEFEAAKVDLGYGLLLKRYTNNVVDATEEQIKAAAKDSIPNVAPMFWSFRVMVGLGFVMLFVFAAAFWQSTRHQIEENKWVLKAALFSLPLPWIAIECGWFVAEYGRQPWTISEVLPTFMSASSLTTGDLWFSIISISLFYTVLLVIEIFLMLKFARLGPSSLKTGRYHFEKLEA
T1 sequence (Q8EC59 1-379 partner): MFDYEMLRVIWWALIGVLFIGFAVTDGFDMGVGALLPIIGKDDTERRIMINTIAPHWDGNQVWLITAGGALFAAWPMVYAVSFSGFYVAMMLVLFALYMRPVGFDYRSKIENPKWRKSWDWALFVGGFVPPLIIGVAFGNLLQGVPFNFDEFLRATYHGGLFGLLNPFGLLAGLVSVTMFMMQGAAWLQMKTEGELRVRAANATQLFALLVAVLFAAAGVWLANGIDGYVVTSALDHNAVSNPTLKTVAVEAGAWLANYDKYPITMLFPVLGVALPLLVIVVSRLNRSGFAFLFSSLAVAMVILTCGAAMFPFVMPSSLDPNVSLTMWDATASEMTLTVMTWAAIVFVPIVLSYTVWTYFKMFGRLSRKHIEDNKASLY
T1 sequence (Q8EC60 1-38 partner): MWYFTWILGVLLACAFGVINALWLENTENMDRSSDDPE

[2] = target: T2, cbb3-HCO (cytochrome cbb3 oxidase) (Shewanella oneidensis, UniProt Q8EEL5); test: oxygen consumption (O2 electrode), membranes of Δcyd strain; type: biochemical; details: ~70 μmol/L O2; ascorbate + TMPD as electron donor; no added ScyA
T2 construct: gene ccoN; native ccoNOQP complex in membrane preparations of S. oneidensis Δcyd strain (bd oxidase absent), not purified, no tag; with Cbb3-type cytochrome c oxidase subunit II CcoO; Cbb3-type cytochrome c oxidase subunit III CcoP; Cbb3-type cytochrome c oxidase subunit IV CcoQ
T2 sequence (Q8EEL5 1-478): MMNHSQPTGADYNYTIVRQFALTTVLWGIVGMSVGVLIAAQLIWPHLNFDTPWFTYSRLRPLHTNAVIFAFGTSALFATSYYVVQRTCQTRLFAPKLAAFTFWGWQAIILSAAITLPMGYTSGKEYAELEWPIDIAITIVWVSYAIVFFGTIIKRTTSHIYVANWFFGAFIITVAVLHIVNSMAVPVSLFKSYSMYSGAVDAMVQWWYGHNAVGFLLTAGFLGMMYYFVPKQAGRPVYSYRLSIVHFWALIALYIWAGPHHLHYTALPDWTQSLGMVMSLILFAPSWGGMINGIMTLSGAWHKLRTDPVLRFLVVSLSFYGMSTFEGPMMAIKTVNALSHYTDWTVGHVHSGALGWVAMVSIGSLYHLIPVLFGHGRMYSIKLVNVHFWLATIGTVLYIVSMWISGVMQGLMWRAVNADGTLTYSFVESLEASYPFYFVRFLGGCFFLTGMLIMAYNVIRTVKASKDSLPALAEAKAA
T2 sequence (Q8EEL6 1-208 partner): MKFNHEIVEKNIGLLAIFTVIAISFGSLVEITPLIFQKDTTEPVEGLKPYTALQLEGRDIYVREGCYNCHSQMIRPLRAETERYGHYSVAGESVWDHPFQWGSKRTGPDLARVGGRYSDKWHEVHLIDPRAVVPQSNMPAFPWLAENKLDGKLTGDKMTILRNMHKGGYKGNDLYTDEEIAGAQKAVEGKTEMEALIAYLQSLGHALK
T2 sequence (Q8EEL8 1-322 partner): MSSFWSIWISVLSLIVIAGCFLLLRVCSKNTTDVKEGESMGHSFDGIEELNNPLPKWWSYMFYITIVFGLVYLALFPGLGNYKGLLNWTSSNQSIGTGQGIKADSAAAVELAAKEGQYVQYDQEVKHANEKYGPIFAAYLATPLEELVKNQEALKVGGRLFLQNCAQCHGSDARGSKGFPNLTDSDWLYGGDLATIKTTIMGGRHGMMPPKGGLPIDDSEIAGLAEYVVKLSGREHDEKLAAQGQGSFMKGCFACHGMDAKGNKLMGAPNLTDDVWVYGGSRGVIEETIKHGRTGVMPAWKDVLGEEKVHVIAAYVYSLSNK
T2 sequence (Q8EEL7 1-58 partner): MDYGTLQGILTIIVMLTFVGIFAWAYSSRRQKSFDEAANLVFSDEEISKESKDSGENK

O=NO [nitrite]
IC50 [1]: ~180 nM | IC50 [2]: ~50 nM
